Data from patent EP0366385A1, “Guanine derivatives having antiviral activity and their pharmaceutically acceptable salts” (THE WELLCOME FOUNDATION LIMITED, priority 1988, dated 1990).

Test system: HIV
Experiment: Antiviral activity against HIV (method of Mitsuya et al.)
Type: cell-based
Details: Human immunodeficiency virus 1, read-out: IC₅₀
Experimental: The title compound of Example 1G (L-valine ester) and the title compound of Example 1F (the 1S, 4R enantiomeric form of carbovir) were tested for activity against HIV generally in accordance with the method described by Mitsuya et al, Proc. Natl. Acad. Sci. Vol. 82, pp 7096-7100, Oct. 1985 and found to have activity against HIV at the following concentrations

With `Nc1nc2c(ncn2[C@H]2C=C[C@@H](CO)C2)c(=O)[nH]1` [Example 1F, (1R, 4S)-9-(4-Hydroxymethyl-2-cyclopentenyl)guanine] as the molecule, how does the IC50 read?
The IC50 was 2500 nM.
